Data set [1] has as its system U87 human glioblastoma cells. It counts as cell-based. The conditions noted are these: MTT test; for IC50: 0.05–50 µM, treated 24 h (method: overnight), washed, further 48 h (method: 72 h) at 37 °C, two independent experiments with four parallel measurements. The procedure: The in vitro cytostatic effect of the synthesized peptide (1) and daunomycin-peptide conjugates (2–8) was investigated on U87 human glioblastoma cells. The cells were treated with the peptide and conjugates at different concentrations (0.05–50 μM) for 24 h, and after a washing step, the cells were incubated for another […] at 37 °C. The cytostatic effect of the compounds was determined using the MTT test.
U87 human glioblastoma cell line was cultured in DMEM supplemented with 10% FBS, 2 mM L-glutamine, penicillin–streptomycin antibiotic mixture (50 IU/mL and 50 μg/mL, respectively), 1 mM sodium pyruvate, and 1% non-essential amino acid mixture. The cell culture was maintained at 37 °C in a humidified atmosphere with 5% CO2. The U87 cell line was a generous gift of Dr. József Tóvári (Department of Experimental Pharmacology, National Institute of Oncology, Budapest, Hungary).
For determining the cytostatic effect of the conjugates, U87 cells were grown to confluency and then divided into 96-well tissue culture plates with an initial cell number of 5.0 × 10^3 cells/well. After 24 h incubation at 37 °C, the cells were treated with the compounds overnight in the concentration range of 0.05–50 μM in 200 μL final volume containing 1.0 v/v% DMSO, whereas control cells were treated only with serum-free medium or with 1.0 v/v% DMSO at the same conditions. After the incubation, cells were washed twice with serum-free medium, then the cells were cultured for an additional 72 h in 10% serum-containing medium at 37 °C. Following that, MTT solution (at c = 0.37 mg/mL final concentration) was added to each well. The respiratory chain [32] and other electron transport systems reduced MTT and thereby formed non-water-soluble violet formazan crystals within the cells. The amount of these crystals can be determined by spectrophotometry and serves as an estimate for the number of mitochondria in addition to the number of living cells in the well [35]. After 3 h of incubation with MTT, the cells were centrifuged for 5 min at 2000 rpm and the supernatant was removed. The obtained formazan crystals were dissolved in DMSO (100 µL), and the optical density (OD) of the samples was measured at λ = 540 nm and 620 nm, respectively, using ELISA Reader (iEMS Reader, Labsystems, Finland). The OD620 values were subtracted from the OD540 values. The percent of cytostasis was calculated with the following equation:(1) Cytostatic effect (%)=1−ODtreated/ODcontrol×100 where the ODtreated and ODcontrol values correspond to the optical densities of the treated and the control wells, respectively. In each case, two independent experiments were carried out with four parallel measurements. Cytostasis was plotted as a function of concentration, and the half-maximal inhibitory concentration was calculated based on a sigmoid curve fitted on the data points using Microcal™ Origin 2018 software. IC50 represents the concentration of a compound that is required for 50% inhibition, expressed in micromolar units.

Data set [2] can be described thus: Degradation in rat liver lysosomal homogenate followed by HPLC-MS. It counts as in vitro ADME. The procedure:
The conjugates were treated with lysosomal homogenate for 5 min, 1 h, 6 h, 24 h, and 72 h, and the degradation was followed by HPLC-MS. Control studies investigating conjugates in buffer (without lysosomal homogenate) were also performed, and for these, all conjugates were stable. […] At 6 h, it was the main drug-containing metabolite, and at 72 h, only this Dau-containing fragment could be detected. This time-dependent pattern was also observed in the case of conjugate 2, where Dau was attached to the side chain of Lys in position 15, and the formed smallest metabolite was H-Lys(Dau=Aoa)-OH. […] It is likely that, in this case, a large steric hindrance occurred, and the enzymes were not able to access the peptide bonds around ^10Lys. This observation might explain the discrepancy between the efficient cellular uptake and the lower anticancer activity of this conjugate.
A stock solution with a concentration of 2.5 μg/μL was prepared from the conjugates in distilled water, and this was diluted 100× with 0.2 M sodium acetate buffer (pH 5.03). The rat liver lysosomal homogenate (16.6 μg/μL) was diluted 20× with the same buffer, and then the two solutions were mixed in a 1:1 (protein:peptide, m/m) ratio. In each case, control measurements were also performed, in which buffer was added to the conjugates instead of the lysosomal homogenate. The solutions were stirred at 600 rpm at 37 °C in a thermostat (ThermoMixer, Eppendorf AG, Hamburg, Germany), and after 5 min, 1 h, 6 h, 24 h, and 72 h, 50 μL samples were taken. Each reaction was quenched with 5 μL formic acid and the samples were stored frozen until analysis.
The HPLC-MS analysis of the samples was performed with a Dionex 3000 HPLC-Q Exactive Focus hybrid quadrupole-orbitrap mass spectrometer (Thermo Fisher Scientific, Bremen, Germany). For separation, a Supelco Ascentis C18 column (3 μm, 100 Å, 150 × 2.1 mm; Merck, Darmstadt, Germany) and gradient elution (0 min 2% B, 1 min 2% B, 17 min 90% B; A eluent: 0.1% formic acid/distilled water, eluent B: 0.1% formic acid/acetonitrile + distilled water (80:20, v/v%), flow rate 0.2 mL/min, 40 °C) was used, and high-resolution mass spectra were recorded in the range of 200–1800 m/z. The data were analyzed using the Xcalibur program (Thermo Fisher Scientific).

Broadly, the IC50 is the point on the concentration scale where inhibition reaches its midpoint. With `COc1cccc2c1C(=O)c1c(O)c3c(c(O)c1C2=O)C[C@@](O)(C(C)=NOCC(=O)N[C@H](C(=O)N[C@@H](Cc1ccccc1)C(=O)N[C@@H](Cc1ccccc1)C(=O)N[C@@H](Cc1ccc(O)cc1)C(=O)NCC(=O)NCC(=O)N[C@@H](CO)C(=O)N[C@@H](CCCNC(=N)N)C(=O)NCC(=O)N[C@@H](CCCCN)C(=O)N[C@@H](CCCNC(=N)N)C(=O)N[C@@H](CC(N)=O)C(=O)N[C@@H](CC(N)=O)C(=O)N[C@@H](Cc1ccccc1)C(=O)N[C@@H](CCCCN)C(=O)N[C@H](C(=O)N[C@@H](CCC(=O)O)C(=O)N[C@@H](CCC(=O)O)C(=O)N[C@@H](Cc1ccc(O)cc1)C(=O)O)[C@@H](C)O)[C@@H](C)O)C[C@@H]3O[C@H]1C[C@H](N)[C@H](O)[C@H](C)O1` [compound 3, Dau=Aoa-TFFYGGSRGKRNNFKTEEY-OH], the IC50 in data set [1] was 10.9 ± 2.8 µM. Besides, the “time of appearance of the Dau=Aoa-Thr-OH fragment” value in data set [2] (1:1 protein:peptide m/m, 0.2 M sodium acetate pH 5.03, 37 °C) is listed as ≤ 1 h.

For `COc1cccc2c1C(=O)c1c(O)c3c(c(O)c1C2=O)C[C@@](O)(C(C)=NOCC(=O)N[C@H](C(=O)N[C@@H](C)C(=O)NCCCC[C@H](NC(=O)CNC(=O)[C@H](CCCNC(=N)N)NC(=O)[C@H](CO)NC(=O)CNC(=O)CNC(=O)[C@H](Cc1ccc(O)cc1)NC(=O)[C@H](Cc1ccccc1)NC(=O)[C@H](Cc1ccccc1)NC(=O)[C@@H](N)[C@@H](C)O)C(=O)N[C@@H](CCCNC(=N)N)C(=O)N[C@@H](CC(N)=O)C(=O)N[C@@H](CC(N)=O)C(=O)N[C@@H](Cc1ccccc1)C(=O)N[C@@H](CCCCN)C(=O)N[C@H](C(=O)N[C@@H](CCC(=O)O)C(=O)N[C@@H](CCC(=O)O)C(=O)N[C@@H](Cc1ccc(O)cc1)C(=O)O)[C@@H](C)O)C(C)C)C[C@@H]3O[C@H]1C[C@H](N)[C@H](O)[C@H](C)O1` [compound 10, H-TFFYGGSRGK(Dau=Aoa-VA)RNNFKTEEY-OH], the IC50 in data set [1] is > 50 µM. For the same compound, the “amount of H-K(Dau=Aoa-VA)-OH formed” value in data set [2] (pH 5.03, 37 °C) is on record as “very small amounts”. Further, the “amount of expected metabolite Dau=Aoa-Val-OH produced after 72 h” value in data set [2] (pH 5.03, 37 °C, 72 h) was “negligible amounts”.

On to `C[C@@H](O)[C@H](N)C(=O)N[C@@H](Cc1ccccc1)C(=O)N[C@@H](Cc1ccccc1)C(=O)N[C@@H](Cc1ccc(O)cc1)C(=O)NCC(=O)NCC(=O)N[C@@H](CO)C(=O)N[C@@H](CCCNC(=N)N)C(=O)NCC(=O)N[C@@H](CCCCN)C(=O)N[C@@H](CCCNC(=N)N)C(=O)N[C@@H](CC(N)=O)C(=O)N[C@@H](CC(N)=O)C(=O)N[C@@H](Cc1ccccc1)C(=O)N[C@@H](CCCCN)C(=O)N[C@H](C(=O)N[C@@H](CCC(=O)O)C(=O)N[C@@H](CCC(=O)O)C(=O)N[C@@H](Cc1ccc(O)cc1)C(=O)O)[C@@H](C)O` [compound 1, H-TFFYGGSRGKRNNFKTEEY-OH, reference compound], for which the IC50 in data set [1] is > 50 µM. The “in vitro cytostatic effect (in words)” value in data set [1] (up to 50 µM) is “did not show any effect”.

For the compound `COc1cccc2c1C(=O)c1c(O)c3c(c(O)c1C2=O)C[C@@](O)(C(C)=NOCC(=O)NCCCC[C@H](NC(=O)[C@H](Cc1ccccc1)NC(=O)[C@H](CC(N)=O)NC(=O)[C@H](CC(N)=O)NC(=O)[C@H](CCCNC(=N)N)NC(=O)[C@H](CCCCN)NC(=O)CNC(=O)[C@H](CCCNC(=N)N)NC(=O)[C@H](CO)NC(=O)CNC(=O)CNC(=O)[C@H](Cc1ccc(O)cc1)NC(=O)[C@H](Cc1ccccc1)NC(=O)[C@H](Cc1ccccc1)NC(=O)[C@@H](NC(=O)CON=C(C)[C@]1(O)Cc2c(O)c4c(c(O)c2[C@@H](O[C@H]2C[C@H](N)[C@H](O)[C@H](C)O2)C1)C(=O)c1c(OC)cccc1C4=O)[C@@H](C)O)C(=O)N[C@H](C(=O)N[C@@H](CCC(=O)O)C(=O)N[C@@H](CCC(=O)O)C(=O)N[C@@H](Cc1ccc(O)cc1)C(=O)O)[C@@H](C)O)C[C@@H]3O[C@H]1C[C@H](N)[C@H](O)[C@H](C)O1` [compound 5, Dau=Aoa-TFFYGGSRGKRNNFK(Dau=Aoa)TEEY-OH], in data set [1], half-maximal inhibition (IC50) required 32.3 ± 8.1 µM.

`COc1cccc2c1C(=O)c1c(O)c3c(c(O)c1C2=O)C[C@@](O)(C(C)=NOCC(=O)NCCCC[C@H](NC(=O)CNC(=O)[C@H](CCCNC(=N)N)NC(=O)[C@H](CO)NC(=O)CNC(=O)CNC(=O)[C@H](Cc1ccc(O)cc1)NC(=O)[C@H](Cc1ccccc1)NC(=O)[C@H](Cc1ccccc1)NC(=O)[C@@H](N)[C@@H](C)O)C(=O)N[C@@H](CCCNC(=N)N)C(=O)N[C@@H](CC(N)=O)C(=O)N[C@@H](CC(N)=O)C(=O)N[C@@H](Cc1ccccc1)C(=O)N[C@@H](CCCCNC(=O)CON=C(C)[C@]1(O)Cc2c(O)c4c(c(O)c2[C@@H](O[C@H]2C[C@H](N)[C@H](O)[C@H](C)O2)C1)C(=O)c1c(OC)cccc1C4=O)C(=O)N[C@H](C(=O)N[C@@H](CCC(=O)O)C(=O)N[C@@H](CCC(=O)O)C(=O)N[C@@H](Cc1ccc(O)cc1)C(=O)O)[C@@H](C)O)C[C@@H]3O[C@H]1C[C@H](N)[C@H](O)[C@H](C)O1` [compound 6, H-TFFYGGSRGK(Dau=Aoa)RNNFK(Dau=Aoa)TEEY-OH] registered an IC50 in data set [1] of 21.6 ± 5.4 µM.

As to `COc1cccc2c1C(=O)c1c(O)c3c(c(O)c1C2=O)C[C@@](O)(C(C)=NOCC(=O)NCCCC[C@H](NC(=O)CNC(=O)[C@H](CCCNC(=N)N)NC(=O)[C@H](CO)NC(=O)CNC(=O)CNC(=O)[C@H](Cc1ccc(O)cc1)NC(=O)[C@H](Cc1ccccc1)NC(=O)[C@H](Cc1ccccc1)NC(=O)[C@@H](NC(=O)CON=C(C)[C@]1(O)Cc2c(O)c4c(c(O)c2[C@@H](O[C@H]2C[C@H](N)[C@H](O)[C@H](C)O2)C1)C(=O)c1c(OC)cccc1C4=O)[C@@H](C)O)C(=O)N[C@@H](CCCNC(=N)N)C(=O)N[C@@H](CC(N)=O)C(=O)N[C@@H](CC(N)=O)C(=O)N[C@@H](Cc1ccccc1)C(=O)N[C@@H](CCCCNC(=O)CON=C(C)[C@]1(O)Cc2c(O)c4c(c(O)c2[C@@H](O[C@H]2C[C@H](N)[C@H](O)[C@H](C)O2)C1)C(=O)c1c(OC)cccc1C4=O)C(=O)N[C@H](C(=O)N[C@@H](CCC(=O)O)C(=O)N[C@@H](CCC(=O)O)C(=O)N[C@@H](Cc1ccc(O)cc1)C(=O)O)[C@@H](C)O)C[C@@H]3O[C@H]1C[C@H](N)[C@H](O)[C@H](C)O1` [compound 8, Dau=Aoa-TFFYGGSRGK(Dau=Aoa)RNNFK(Dau=Aoa)TEEY-OH], in data set [1], the midpoint of inhibition, the IC50, lay at 23.6 ± 6.3 µM.

In data set [1], `COc1cccc2c1C(=O)c1c(O)c3c(c(O)c1C2=O)C[C@@](O)(C(C)=NOCC(=O)NCCCC[C@H](NC(=O)[C@H](Cc1ccccc1)NC(=O)[C@H](CC(N)=O)NC(=O)[C@H](CC(N)=O)NC(=O)[C@H](CCCNC(=N)N)NC(=O)[C@H](CCCCN)NC(=O)CNC(=O)[C@H](CCCNC(=N)N)NC(=O)[C@H](CO)NC(=O)CNC(=O)CNC(=O)[C@H](Cc1ccc(O)cc1)NC(=O)[C@H](Cc1ccccc1)NC(=O)[C@H](Cc1ccccc1)NC(=O)[C@@H](N)[C@@H](C)O)C(=O)N[C@H](C(=O)N[C@@H](CCC(=O)O)C(=O)N[C@@H](CCC(=O)O)C(=O)N[C@@H](Cc1ccc(O)cc1)C(=O)O)[C@@H](C)O)C[C@@H]3O[C@H]1C[C@H](N)[C@H](O)[C@H](C)O1` [compound 2, H-TFFYGGSRGKRNNFK(Dau=Aoa)TEEY-OH] yielded an IC50 of 30.2 ± 6.4 µM.

These data come from PMC9959518, “Influence of the Drug Position on Bioactivity in Angiopep-2—Daunomycin Conjugates” (International Journal of Molecular Sciences, 2023).
